Source: patent US20240358682A1, “USE OF ALPHA-2-ADRENERGIC RECEPTOR AGONISTS FOR IMPROVING VISION” (Allergan, Inc., priority 2018, published 2024)

Assays:
Dutch Belted rabbits [1] = assay: In vivo rabbit miosis model, low-light (scotopic) conditions; conditions: for miotic efficacy compared with brimonidine: single topical dose, low light, FIG. 1 to FIG. 4; for animals with greater than 2.5 mm reduction in pupil size from baseline: 0.1% w:v, scotopic (<10 lux), n=6
Protocol: (§1) Female Dutch Belted rabbits (Covance, Princeton, New Jersey) weighing between 2-4 kg were used for these studies. […] For topical dosing, eye drops (volume=35 μl) were instilled into the lower conjunctival sac of the test eye.
Pupil diameter was measured in both the treated and untreated eye with an Optistick to the nearest 0.5 mm. […] All studies were done under low-light conditions in which a red photography light is used providing 2-10 Lux of light.

Dutch Belted rabbits [2] = assay: In vivo rabbit miosis model, room light conditions; conditions: room lighting conditions, FIG. 5
Protocol: Percentage amounts are % w:v.
as §1
Pupil diameter was measured in both the treated and untreated eye with an Optistick to the nearest 0.5 mm. In all studies, baseline pupil diameter measurements were taken prior to drug administration and then at 0.5, 1, 2, 3 and 4 hours post dose. […]

[3] = Protocol: Aliquots of the PBS only curve were quenched at time zero to be used as stability controls and calibration standards. Following centrifugation, samples were analyzed by LC-MS/MS bioanalysis. Back-calculated concentrations using the assay PBS curve were used for binding and stability calculations.
patients = assay: Patient case examples (presbyopia, glare/starbursts/halos, night vision, night myopia); assay type: in vivo, human
Description: A person complains of an inability to focus on text when reading up close, which is interfering with their ability of read documents at work, as well as reading books and news articles. The problem seems worse under lower lighting conditions, such as the dim lighting in a restaurant. The visual degradation had been occurring over time, but in recent months, the person's inability to focus on text when read close up had been more pronounced such as to interfere with their quality of life. The person is seen by an ophthalmologist who performs a visual acuity test in which they are asked to read lines of letters on an eye chart without the assistance of glasses or contacts (neither of which they wear anyway). They find that they are only able to read the first four lines on the chart, when a person with normal vision should be able to read six. Based on the person's age and results of the test, they are diagnosed with presbyopia. The person is reluctant to have to obtain reading glasses or wear contact lenses and asks if there are any other medical treatments. They are instructed to administer to their eyes a composition comprising a compound of Formula I one or two times a day. Starting with the first couple of doses, the patient reports improved vision when reading text up close. On a follow-up visit to the ophthalmologist, they are again asked to read lines of letters on an eye chart (they are still administering the composition with the compound of Formula I to their eyes), and this time they are able to read the first six lines, a two line improvement over their previous results prior to administering the compound of Formula I to their eyes.
A person has noticed that their near vision has been deteriorating over the last few years such that they often have to hold reading material almost out to arm's length in order to be able to read the print, especially when the ambient light is dim. The person visits their ophthalmologist who performs a basic eye exam and refraction assessment. Based on the examination, the ophthalmologist prescribes a composition comprising brimonidine to constrict the person's pupil to treat the presbyopia, and the person is instructed to administer the composition to their eyes daily as needed.
A person decides to undergo LASIK surgery. The surgeon who will perform the surgery evaluates the patient and determines that they are a suitable candidate for the surgery, but is told that side effects of the surgery include visual glare, visual starbursts, and visual halos, especially at night. The surgeon performs the surgery without any noticeable issues and the patient is discharged. A day later the patient drives home during the evening for the first time since the surgery and notices what appear to be starbursts of light emanating from the headlights and rear lights of other cars, as well as from street lights, and also glare coming from those light sources that interfere with is vision. The patient also observes diffuse rings around some of the street lights and illuminated street signs. Upon consultation, the surgeon confirms that such visual disturbances are indeed the visual glare, visual starburst, and visual halo side effects often seen after LASIK surgery, and the patient is prescribed a composition comprising the compound of Formula I, which the patient administers to their eyes in accordance with the package instructions.
A person has noticed that they are having issues seeing the street names on street signs with good contrast when they are driving at night. The person consults with their ophthalmologist who, upon hearing the patient's description and performing a visual acuity test under low light conditions, prescribes a composition comprising the compound of Formula I, which the patient administers to their eyes in accordance with the package instructions. […]

presbyopic patients = conditions: different lighting conditions, McDonald II et al.; cited from earlier work

Brc1c(N=C2NCCN2)ccc2[nH]cnc12 [Compound 3, reference compound]
miotic efficacy compared with brimonidine (Dutch Belted rabbits [1]): much less than brimonidine

Cc1c(N=C2NCCN2)ccc2[nH]cnc12 [Compound 1]
animals with greater than 2.5 mm reduction in pupil size from baseline (Dutch Belted rabbits [1]; after 6 hours): more than half
animals with greater than 2.5 mm reduction in pupil size from baseline (Dutch Belted rabbits [1]; two hours after dosing): virtually all
miotic efficacy compared with brimonidine (Dutch Belted rabbits [1]): greater magnitude of pupil size reduction
pupil constriction at 9 hours after dosing (Dutch Belted rabbits [1]; topical dose, FIG. 6): significant pupil constriction
effect on pupil constriction compared to Compound 3 (Dutch Belted rabbits [1]; topical dose, FIG. 7): greater effect
miotic action compared with brimonidine (peak pupil constriction and duration of action) (Dutch Belted rabbits [2]): greater miotic action than brimonidine
melanin binding (assessment in words) [3]: no significant melanin binding
ability to focus on distant objects at night (patients; person with night myopia): as good as their ability to do so during the day
administrations needed per day to treat presbyopia (patients; person with presbyopia): once (or sometimes twice)
improvement in lines read on eye chart (patients; person with presbyopia, composition one or two times a day): two
night vision contrast (patients; person, driving at night): much better contrast
visual glare, starbursts and halos after LASIK (patients; person, night driving): significantly reduced

Brc1c(NC2=NCCN2)ccc2nccnc12 [Compound 4, brimonidine, reference compound]
animals with greater than 2.5 mm reduction in pupil size from baseline (Dutch Belted rabbits [1]; after 6 hours): virtually none
animals with greater than 2.5 mm reduction in pupil size from baseline (Dutch Belted rabbits [1]; half hour after dosing): much less than half
melanin binding (assessment in words) [3]: much more significant binding
administrations needed per day to treat presbyopia (patients; person with presbyopia): three
average pupil size after brimonidine (presbyopic patients): 3.4 mm

CCc1c(N=C2NCCN2)ccc2[nH]cnc12 [Compound 2, reference compound]
miotic efficacy compared with brimonidine (Dutch Belted rabbits [1]): much less than brimonidine
